From patent publication US9476099B2 (TRUSTEES OF DARTMOUTH COLLEGE, priority 2012, dated 2016)
Entries after “also recorded” stand apart in the source; their conditions may differ.

How the values were obtained:
[1] = tested on: LINE-1 elements in NT2/D1 cells; assay: LINE-1 element bisulfite pyrosequencing (global DNA methylation); type: cell-based; settings: low dose decitabine
From the text: Genomic DNA was isolated with the QIAMP DNA mini kit (Qiagen) and bisulfite converted with the EZ DNA methylation kit (Zymo Research). DNA was amplified with HOTSTARTAQ plus DNA polymerase (Qiagen). The LINE-1 pyrosequencing assay averages across four CpG sites and has been described previously (Kashiwagi et al. 2011. Nucleic Acids Res. 39:874-888). Pyrosequencing assays for RIN1, SOX15, and TLR4 were designed with PyroMark assay design software (Qiagen) to sequence across corresponding probes cg0599842, cg02515422 and cg13098960 on the HumanMethylation27 BeadChip.

[2] = tested on: RIN1, SOX15 and TLR4 in NT2/D1 cells; assay: Real-time PCR of gene expression; type: cell-based; settings: 10 nM, 3 days, FIG. 14
From the text: The graph depicts an average of triplicate sample determinations. Error bars are standard deviation. *=p<0.05; **=p<0.005.
(§1) However, methylation changes were less robust in the experiments in NT2/D1 cells. Only 12 genes were identified as having significant decreases in promoter methylation. […] These six genes included RIN1, SOX15, TLR4, GPER, TRIM54, and CD164L2.
(§2) SYBR green-based real-time PCR (Applied Biosystems) was employed using the ddCT method normalized to GAPDH. For western blot analysis cells were lysed in radioimmune precipitation buffer and separated by SDS-PAGE. Antibodies to actin (sc01615, Santa Cruz), 139-H2AX (Cell Signaling), PARP (c-2-10, Biomol International) and p53 (D0-1, Santa Cruz) were used.

[3] = tested on: gene promoters in NT2/D1 cells; assay: Global DNA promoter methylation analysis, HumanMethylation27 BeadChip; type: cell-based, human; settings: 3 day low dose decitabine
Procedure: as §1
DNA methylation analysis was performed in samples in triplicate using the […] […] assay with the HumanMethylation27 BeadChip ([…]) and the BeadChip was scanned on the BeadArray Reader ([…]), according to the manufacturer's instructions. Raw data was normalized and analyzed with Genome Studio software ([…]). The HumanMethylation27 BeadChip assays 27,578 CpGs covering more than 14,000 genes, mostly from promoter regions. […] Hierarchical clustering was performed as stated above. HumanMethylation27 BeadChip data and gene expression microarray data were submitted to NCBI GEO.

U87 glioblastomoa cells = assay: Decitabine treatment of glioblastoma cells; type: cell-based; settings: doses as high as 1 μM
[4] = tested on: colorectal cancer, cancer of the head and neck, renal carcinoma, or malignant melanoma; settings: 75 mg/m^2, 3 treatments in one day, repeated once a week for 5 weeks; Abele et al. 1987; cited from earlier work
NT2/D1 cells = assay: Apoptosis by PARP cleavage and sub G1 DNA content; type: cell-based; settings: decitabine 10 nM, three days; NT2/D1
Procedure: (§3) Cells were cultured in DMEM media (Gibco) with 10% FBS. Decitabine was added fresh each day. Lentiviral control cells and the stable shRNA DNMT3B knockdown cell line (NT2/D1-R1-sh84) were described previously (Beyrouthy et al. 2009. Cancer Res. 69:9360-9366). DNMT3B knockdown was greater than 90% as confirmed by western blot analysis. Cell proliferation and survival were assessed with the CELL-TITRE GLO assay (Promega). Cell cycle analysis with propidium iodine has been previously described (Kerley-Hamilton et al. 2005. Oncogene 24:6090-6100).
as §2

[5] = tested on: phosphorylated H2AX in NT2/D1-R1 cells; assay: DNA damage by induction of phosphorylated H2AX (western blot); type: cell-based; settings: three day decitabine treatment
From the text: (§4) Importantly, decitabine-mediated H2AX activation also occurs in the presence of the caspase 3 inhibitor (Z-VAD-FMK) at concentrations that inhibit PARP cleavage.
as §2

[6] = tested on: NT2/D1 and NT2/D1-R1 cells expressing DNMT3B-targeting shRNAs; assay: Decitabine dose-response in DNMT3B shRNA knockdown EC cells; type: cell-based, human
Procedure: Data are the average of biological triplicates and are representative of at least two experiments. Error bars are S.D.
Viable cell growth and survival were measured. Data was normalized to no drug treatment. Error bars (within symbols) are standard deviation. * p=<0.05 compared to untreated controls.
Five distinct lentiviral shRNAs for DNMT3B (sh84, sh85, sh86, sh87, and sh88) were used to knock down DNMT3B expression. Six potential alternatively spliced isoforms of DNMT3B exist; the most biologically relevant isoforms are variants 1, 2, 3 and 6 (Jones, P. A. and S. B. Baylin. 2007. Cell 128:683-692). […] Western blot analysis of NT2/D1 and NT2/D1-R1 cells was also performed with cells treated with DNMT3B shRNA ([…]) and employing DNMT3B antibody, H-230. The results confirmed the reduced expression of DNMT3B when the shRNA were employed. None of the DNMT3B-specific shRNAs affected levels of DNMT1 or DNMT3A (FIG. 2). […] However, knockdown of DNMT3B by itself had no apparent effect on the growth of NT2/D1 or NT2/D1-R1 cells. […] It had been previously reported that cisplatin causes a global p53-dominant transcriptional response in EC cells (Kerley-Hamilton et al. 2005. Oncogene 24:6090-6100). […]
Cells were cultured in DMEM media (Gibco) with 10% FBS. […] Cell proliferation and survival were assessed with the CELL-TITRE GLO assay (Promega). […]

NT2/D1-R1 cells = assay: Apoptosis by PARP cleavage and sub G1 DNA content; type: cell-based; settings: decitabine 10 nM, three days; NT2/D1-R1
Procedure: as §4, §3, §2

Structure (SMILES): Nc1ncn([C@H]2C[C@H](O)[C@@H](CO)O2)c(=O)n1 [decitabine, 5-aza-deoxycytidine]
- global DNA methylation (LINE-1 bisulfite pyrosequencing) [1]: significant reduction in global DNA methylation
- expression of RIN1, SOX15 and TLR4 (real-time PCR) [2]: increased expression
- genes with significant decreases in promoter methylation [3]: 12 genes
- effect of decitabine treatment on U87 cells (U87 glioblastomoa cells): unaffected
- efficacy against cancer in patients [4]: no efficacy
- apoptotic responses (PARP cleavage, sub G1 DNA content with G2 arrest) (NT2/D1 cells): apoptotic responses
- DNA damage assessed by induction of phosphorylated H2AX [5]: induced DNA damage
- effect of DNMT3B knockdown on response to low-dose 3 day decitabine treatment compared to sh-control cells ([6]; NT2/D1-R1 shDNMT3B, FIG. 11): extensive resistance
- decitabine sensitivity of cells expressing DNMT3B-targeting shRNAs compared to control cells ([6]; NT2/D1 sh84, NT2/D1-R1 sh84, sh85, sh86, 3 day treatment, FIG. 3): dramatic reduction of decitabine sensitivity
- apoptotic responses (PARP cleavage, sub G1 DNA content with G2 arrest) (NT2/D1-R1 cells): apoptotic responses; also recorded: induced apoptosis
